Test results published in ChEMBL document CHEMBL1201862, “PubChem BioAssay data set” (2004).
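How tested: cells in 96-well plates exposed to compound for 48 hours at five concentrations. At the GI50, growth is halved.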 Calls of active or inactive are those of the source. No stated cut-off is given here; in the data, active = GI50 up to about 1.1 µM and inactive = higher.

Key:
Assay in all cases: DTP human tumour cell line panel, 48 h
A549 = system: A549
CAKI-1 = system: CAKI-1
EKVX = system: EKVX
HOP-62 = system: HOP-62
HT-29 = system: HT-29
K562 = system: K562
LOX IMVI = system: LOX IMVI
M14 = system: M14
MCF7 = system: MCF7
MDA-MB-231 = system: MDA-MB-231
NCI-H522 = system: NCI-H522
OVCAR-4 = system: OVCAR-4
OVCAR-5 = system: OVCAR-5
OVCAR-8 = system: OVCAR-8
RPMI-8226 = system: RPMI-8226
SF-539 = system: SF-539
SK-MEL-5 = system: SK-MEL-5
SK-OV-3 = system: SK-OV-3
SNB-75 = system: SNB-75
UACC-257 = system: UACC-257

Structure (SMILES)	GI50 (A549)	GI50 (CAKI-1)	GI50 (EKVX)	GI50 (HOP-62)	GI50 (HT-29)	GI50 (K562)	GI50 (LOX IMVI)	GI50 (M14)	GI50 (MCF7)	GI50 (MDA-MB-231)	GI50 (NCI-H522)	GI50 (OVCAR-4)	GI50 (OVCAR-5)	GI50 (OVCAR-8)	GI50 (RPMI-8226)	GI50 (SF-539)	GI50 (SK-MEL-5)	GI50 (SK-OV-3)	GI50 (SNB-75)	GI50 (UACC-257)
CCOc1cc2c(cc1O)/C(=N\N)C[C@@H]1[C@@H]2CC[C@]2(C)[C@@H](O)CC[C@@H]12	8.75 µM (inactive)	5.43 µM (inactive)	8.28 µM (inactive)	3.66 µM (inactive)	9.53 µM (inactive)	0.42 µM (active)	4.12 µM (inactive)	4.8 µM (inactive)	2.68 µM (inactive)	5.62 µM (inactive)	2.8 µM (inactive)	24.7 µM (inactive)	36.4 µM (inactive)	7.1 µM (inactive)	4.48 µM (inactive)	3.13 µM (inactive)	1.28 µM (inactive)	5.18 µM (inactive)	3.1 µM (inactive)	7.43 µM (inactive)
O=C1c2ccccc2-c2ccc(O)cc21	25.9 µM (inactive)	14.8 µM (inactive)	16.4 µM (inactive)	36.4 µM (inactive)	30.7 µM (inactive)	31.4 µM (inactive)	40.1 µM (inactive)	26.1 µM (inactive)	21.2 µM (inactive)	16.9 µM (inactive)	16.1 µM (inactive)	20.7 µM (inactive)	26.7 µM (inactive)	20.2 µM (inactive)	39 µM (inactive)	22.9 µM (inactive)	19.4 µM (inactive)		29 µM (inactive)	19.6 µM (inactive)
CCOc1c(OC)cc(CNNc2nccs2)cc1OC	60 µM (inactive)	> 100 µM (inactive)	19.3 µM (inactive)	> 100 µM (inactive)	> 100 µM (inactive)	24 µM (inactive)	47.2 µM (inactive)	42.1 µM (inactive)	> 100 µM (inactive)	94.2 µM (inactive)	52.6 µM (inactive)	> 100 µM (inactive)	4.57 µM (inactive)	> 100 µM (inactive)	7.03 µM (inactive)	> 100 µM (inactive)	12.9 µM (inactive)		34.8 µM (inactive)	20.1 µM (inactive)
CC(=O)OCC1OC(O[C@@H]2C[C@H]3C(C)(C)[C@@H](OC(C)=O)CC[C@]3(C)[C@H]3CC[C@]45C[C@]4(CC[C@H]5[C@@H](C)C[C@@H](O)[C@H](O)C(C)(C)F)[C@@]32C)C(O)C(O)C1O (stereo not given in full)	1.62 µM (inactive)	63.4 µM (inactive)	1.61 µM (inactive)	50 µM (inactive)	1.64 µM (inactive)	1.6 µM (inactive)	1.77 µM (inactive)	1.76 µM (inactive)	12.6 µM (inactive)	25.8 µM (inactive)	1.68 µM (inactive)	65.9 µM (inactive)	1.47 µM (inactive)	2.34 µM (inactive)	1.79 µM (inactive)	1.81 µM (inactive)	1.72 µM (inactive)	42.2 µM (inactive)		7.57 µM (inactive)
O=C(CN1CCCCC1)Nc1ccc2sc3ccccc3c(=O)c2n1	15 µM (inactive)	13.6 µM (inactive)	22.7 µM (inactive)	13.8 µM (inactive)	30.3 µM (inactive)	5.36 µM (inactive)	7.01 µM (inactive)	17.9 µM (inactive)	19.5 µM (inactive)	18.5 µM (inactive)	6.44 µM (inactive)	30.1 µM (inactive)	18.2 µM (inactive)	13.7 µM (inactive)	13.1 µM (inactive)	16.4 µM (inactive)	15.8 µM (inactive)	21.3 µM (inactive)	15.2 µM (inactive)	18.2 µM (inactive)
Nc1ccc(S(=O)(=O)c2ccc(NC(=O)c3cccnc3)cc2)cc1	> 100 µM (inactive)	> 100 µM (inactive)	64.9 µM (inactive)	> 100 µM (inactive)	> 100 µM (inactive)	78 µM (inactive)	> 100 µM (inactive)	> 100 µM (inactive)	> 100 µM (inactive)	> 100 µM (inactive)	53.2 µM (inactive)	62.4 µM (inactive)	> 100 µM (inactive)	> 100 µM (inactive)	36.6 µM (inactive)		42.4 µM (inactive)	> 100 µM (inactive)	30.8 µM (inactive)	53 µM (inactive)
Nc1ccc(-c2ncc3cc(-c4cccc(-c5cc6cnc(-c7ccc(N)cc7)nc6c6ccccc56)c4)c4ccccc4c3n2)cc1	> 100 µM (inactive)	> 100 µM (inactive)	> 100 µM (inactive)	> 100 µM (inactive)	> 100 µM (inactive)	> 100 µM (inactive)	> 100 µM (inactive)	60.1 µM (inactive)	> 100 µM (inactive)	> 100 µM (inactive)	> 100 µM (inactive)		> 100 µM (inactive)	> 100 µM (inactive)	> 100 µM (inactive)	> 100 µM (inactive)	34.5 µM (inactive)	> 100 µM (inactive)	> 100 µM (inactive)	> 100 µM (inactive)
